Measurements from patent publication US20240239794A1, “PKC-Theta Modulators” (Exscientia AI Limited, priority 2021, published 2024).
Structures can show the parent of a compound that is named as a salt. Where two headings read alike, the source gives them in different places.

Columns and labels:
[1] = biological target: Recombinant human PKC-theta (His-tagged 362-706) (Homo sapiens (Human), UniProt Q04759); assay: PKC-theta inhibition assay (HTRF KinEASE kit); type: biochemical; conditions: ATP 6.5 μM
Procedure, shortened: (§1)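 HTRF KinEASE kinase assay, buffer supplemented with 10 mM MgCl2, 1 mM DTT, 0.1% Tween 20; enzyme at 10 ng/ml preincubated 30 min on ice with compound. PKC-theta: 525 nM STK substrate, 6.5 μM ATP, 30 min at 25° C; PKC-delta: 243 nM substrate, 5.7 μM ATP, 20 min. IC50 from 4-parameter fit of 10-dose series.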

[2] = test system: IL-2 secretion by human effector memory T cells (TEM); assay: Effector memory T cells IL-2 release assay; type: cell-based; conditions: T-cell, 24 h
Procedure, shortened: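 Human CD4+ effector memory T cells (negatively sorted from donor PBMC), 5,000 per well, stimulated with CD3/CD28 beads and 10 semi-log compound doses for 24 h at 37° C, 0.1% DMSO. Supernatant IL-2 measured by HTRF; IC50 from 4-parameter logistic fit; viability checked by flow cytometry.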

[3] = biological target: Recombinant human PKC-delta (His-tagged 345-676) (Homo sapiens (Human), UniProt Q05655); assay: PKC-delta inhibition assay (HTRF KinEASE kit), PKC-theta/PKC-delta selectivity; type: biochemical; conditions: ratio; for PKC-theta/PKC-delta selectivity: PKC-theta over PKC-delta, HTRF assays; for PKC-theta/PKC-delta selectivity (binned): binned A to G
Procedure, shortened: as §1

[4] = binned A to H, read-out: PKC-theta HTRF pIC50 (binned) (converted)
[5] = human CD4+ TEM cells, CD3/CD28 bead stimulation, binned A to G, read-out: PKC-theta IL2 pIC50 (binned) (converted)
[6] = human CD4+ TEM cells, CD3/CD28 bead stimulation, read-out: PKC-theta IL2 pIC50 (converted)
[7] = read-out: PKC-theta HTRF pIC50 (converted)

Recombinant human PKC-delta (His-tagged 345-676), sequence (Q05655 345-676): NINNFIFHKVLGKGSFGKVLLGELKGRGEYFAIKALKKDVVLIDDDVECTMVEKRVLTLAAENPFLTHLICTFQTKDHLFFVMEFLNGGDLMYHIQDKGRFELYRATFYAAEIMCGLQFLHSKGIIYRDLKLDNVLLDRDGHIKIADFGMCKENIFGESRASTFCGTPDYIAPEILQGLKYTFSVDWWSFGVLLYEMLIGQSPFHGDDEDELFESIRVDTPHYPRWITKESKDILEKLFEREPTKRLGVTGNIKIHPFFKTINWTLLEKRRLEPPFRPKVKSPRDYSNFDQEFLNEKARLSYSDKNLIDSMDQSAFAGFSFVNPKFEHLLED
Recombinant human PKC-theta (His-tagged 362-706), sequence (Q04759 362-706): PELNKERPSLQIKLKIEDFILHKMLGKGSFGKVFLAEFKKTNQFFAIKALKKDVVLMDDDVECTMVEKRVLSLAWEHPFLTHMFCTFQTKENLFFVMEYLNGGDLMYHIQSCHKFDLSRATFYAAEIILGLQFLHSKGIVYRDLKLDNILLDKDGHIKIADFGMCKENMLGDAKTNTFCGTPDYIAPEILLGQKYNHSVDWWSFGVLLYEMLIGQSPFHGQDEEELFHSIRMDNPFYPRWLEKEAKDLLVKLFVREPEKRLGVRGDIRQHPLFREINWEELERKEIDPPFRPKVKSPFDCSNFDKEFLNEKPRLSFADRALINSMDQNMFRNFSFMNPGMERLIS

Row | SMILES | PKC-theta HTRF pIC50 [1] | IC50 [1, 4] [nM] | IC50 [2, 5] [nM] | IC50 [2, 6] [nM] | PKC-theta/PKC-delta selectivity [3] | PKC-theta/PKC-delta selectivity (binned) [3] | IC50 [1, 7] [nM] | IC50 ([2]; Homo sapiens, read-out: PKC-theta IL2 pIC50 (binned) (converted)) [nM] | IC50 ([2]; Homo sapiens, read-out: PKC-theta IL2 pIC50 (converted)) [nM]
1 | CC1(C)C(=O)Nc2nccc(-c3nn([C@H]4CCNC4)c4ccccc34)c21 [Example 16, 3,3-dimethyl-4-[1-[(3S)-pyrrolidin-3-yl]indazol-3-yl]-1H-pyrrolo[2,3-b]pyridin-2-one Dihydrochloride] | 8.3 | 3.16 to 10 |  |  | 18 | D (D means a ratio of between 10 and 20) |  | 31.6 to 100 | 63.1
2 | CC1(C)C(=O)Nc2nccc(-c3ccn(C4CCNCC4)c3)c21 [Example 6] | 7.4 | 31.6 to 100 | 316 to 1000 | 631 | 3 | F (F means a ratio of between 1 and 5) |  |  | 
3 | CO[C@@]1(C)C(=O)Nc2nccc(-c3nn(CC4(F)CCNCC4)c4cc(F)ccc34)c21 (single isomer, unassigned) [Example 79] |  | 1 to 3.16 | 31.6 to 100 | 50.1 | 15 | D (D means a ratio of between 10 and 20) | 1.26 |  | 
4 | CCC1(O)C(=O)Nc2nccc(-c3nn([C@@H]4CCNC[C@@H]4F)c4ccccc34)c21 (stereo partly drawn) [Example 56] | 8.7 | 1 to 3.16 | 31.6 to 100 | 50.1 | 15 | D (D means a ratio of between 10 and 20) |  |  | 
5 | CC[C@@]1(C)C(=O)Nc2nccc(-c3nn([C@@H]4CCNC[C@@H]4F)c4ccc(F)cc34)c21 (single isomer, unassigned) [Example 97] |  | 1 to 3.16 | 31.6 to 100 | 39.8 | 23 | C (C means a ratio of between 20 and 30) | 2.51 |  | 
6 | CC1(O)C(=O)Nc2nccc(-c3nn([C@@H]4CCNC[C@@H]4F)c4ccccc34)c21 (stereo partly drawn) [Example 34] | 8.8 | 1 to 3.16 | 31.6 to 100 | 39.8 | 12 | D (D means a ratio of between 10 and 20) |  |  | 
7 | CC1(O)C(=O)Nc2nccc(-c3ccn(C4CCNCC4)n3)c21 (stereo not drawn) [Example 13] | 7.4 | 31.6 to 100 | 316 to 1000 | 631 | 4 | F (F means a ratio of between 1 and 5) |  |  | 

More lines, main results first:

Row | PKC-theta HTRF pIC50 [1] | IC50 [1, 4] [nM] | IC50 [2, 5] [nM] | IC50 [2, 6] [nM] | PKC-theta/PKC-delta selectivity [3] | PKC-theta/PKC-delta selectivity (binned) [3] | IC50 [1, 7] [nM] | SMILES | IC50 ([2]; Homo sapiens, read-out: PKC-theta IL2 pIC50 (binned) (converted)) [nM] | IC50 ([2]; Homo sapiens, read-out: PKC-theta IL2 pIC50 (converted)) [nM]
8 | 9.3 | ≤ 1 | 10 to 31.6 | 15.8 | 11 | D (D means a ratio of between 10 and 20) |  | CCC1(O)C(=O)Nc2nccc(-c3nn(C4(CC#N)CCC4)c4ccccc34)c21 (stereo not drawn) [Example 51] |  | 
9 |  | 31.6 to 100 | 316 to 1000 | 398 | 28 | C (C means a ratio of between 20 and 30) | 50.1 | CC[C@]1(C)C(=O)Nc2nccc(-c3nn([C@H]4CCNC4)c4ccccc34)c21 (single isomer, unassigned) [Example 65] |  | 
10 |  | ≤ 1 | 1 to 3.16 | 1.58 | 25 | C (C means a ratio of between 20 and 30) | 0.126 | CN[C@]1(C)C(=O)Nc2nccc(-c3nn(C4(CC#N)CCC4)c4ccccc34)c21 (single isomer, unassigned) [Example 95] |  | 
11 |  | 1 to 3.16 | 31.6 to 100 | 79.4 | 32 | B (B means a ratio of between 30 and 50) | 2.51 | CC[C@]1(OC)C(=O)Nc2nccc(-c3nn(CC4(F)CCNCC4)c4ccccc34)c21 (single isomer, unassigned) [Example 89] |  | 
12 |  | ≤ 1 | 10 to 31.6 | 20 | 11 | D (D means a ratio of between 10 and 20) | 0.631 | C[C@@]1(O)C(=O)Nc2nccc(-c3nn(C4(CC#N)CCC4)c4cc(F)ccc34)c21 (single isomer, unassigned) [Example 59] |  | 
13 |  | ≤ 1 | 31.6 to 100 | 39.8 | 24 | C (C means a ratio of between 20 and 30) | 0.398 | C[C@@]1(O)C(=O)Nc2nccc(-c3nn(CC4CCNCC4)c4ccccc34)c21 (single isomer, unassigned) [Example 29] |  | 
